# Test results taken from patent US7176224B2, “Oxazolyl-aryloxyacetic acid derivatives and their use as PPAR agonists” (Eli Lilly and Company, priority 2000, dated 2007).
# Experiments:
# huPPARγ [1] = molecular target: T1, huPPARγ (Homo sapiens, UniProt P37231); assay: DNA-dependent binding (ABCD binding), SPA, radioligand displacement; conditions: tritium-labeled PPARγ agonist radioligand
# T1 sequence (P37231 1-505): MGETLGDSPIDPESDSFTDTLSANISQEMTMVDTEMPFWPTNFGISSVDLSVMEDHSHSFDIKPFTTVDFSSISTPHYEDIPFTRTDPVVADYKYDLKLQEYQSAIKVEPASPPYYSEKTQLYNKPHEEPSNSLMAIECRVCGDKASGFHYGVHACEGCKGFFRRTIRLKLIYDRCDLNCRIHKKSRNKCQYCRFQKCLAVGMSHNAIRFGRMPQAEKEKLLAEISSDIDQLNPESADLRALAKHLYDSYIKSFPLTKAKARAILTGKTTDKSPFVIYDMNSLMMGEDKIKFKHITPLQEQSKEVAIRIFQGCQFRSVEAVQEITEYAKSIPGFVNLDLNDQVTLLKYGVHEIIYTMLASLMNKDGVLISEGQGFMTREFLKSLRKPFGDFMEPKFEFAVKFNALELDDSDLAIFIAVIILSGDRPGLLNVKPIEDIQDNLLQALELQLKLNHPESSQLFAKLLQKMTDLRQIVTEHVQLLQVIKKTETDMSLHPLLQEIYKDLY
# T1 sequence (P19793 1-462 partner): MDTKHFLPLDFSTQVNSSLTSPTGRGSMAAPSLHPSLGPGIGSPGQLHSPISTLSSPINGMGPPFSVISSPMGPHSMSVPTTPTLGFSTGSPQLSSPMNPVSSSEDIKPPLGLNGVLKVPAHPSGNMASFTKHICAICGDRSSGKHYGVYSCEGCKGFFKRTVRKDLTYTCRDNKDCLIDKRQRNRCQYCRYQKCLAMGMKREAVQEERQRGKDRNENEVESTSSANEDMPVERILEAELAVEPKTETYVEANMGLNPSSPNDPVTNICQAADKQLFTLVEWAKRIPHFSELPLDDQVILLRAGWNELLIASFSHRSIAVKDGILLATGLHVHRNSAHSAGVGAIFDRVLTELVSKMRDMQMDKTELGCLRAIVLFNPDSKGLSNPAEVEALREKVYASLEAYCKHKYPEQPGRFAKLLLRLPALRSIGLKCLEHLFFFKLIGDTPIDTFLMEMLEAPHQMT
# Procedure: (§1) […] binding (ABCD binding) was carried out using SPA technology with PPAR receptors. Tritium-labeled PPARα and PPARγ agonists were used as radioligands for generating displacement curves and IC50 values with compounds of the invention. Cotransfection assays were carried out in CV-1 cells. The reporter plasmid contained an acylCoA oxidase (AOX) PPRE and TK promoter upstream of the luciferase reporter cDNA. Appropriate PPARs and RXRα were constitutively expressed using plasmids containing the CMV promoter. […] In order to eliminate such interference, a GAL4 chimeric system was used in which the DNA binding domain of the transfected PPAR was replaced by that of GAL4, and the GAL4 response element was utilized in place of the AOX PPRE. Cotransfection efficacy was determined relative to PPARα agonist and PPARβ agonist reference molecules. Efficacies were determined by computer fit to a concentration-response curve, or in some cases at a single high concentration of agonist (10 μM). For binding or cotransfection studies with receptors other than PPARs, similar assays were carried out using appropriate ligands, receptors, reporter constructs, etc., for that particular receptor.
# (§2) These studies were carried out to evaluate the ability of compounds of the invention to bind to and/or activate various nuclear transcription factors, particularly huPPARα (“hu” indicates “human”) and huPPARγ. These studies provide in vitro data concerning efficacy and selectivity of compounds of the invention. Furthermore, binding and cotransfection data for compounds of the invention were compared with corresponding data for marketed compounds that act on either huPPARα or huPPARγ.
# huPPARα [2] = molecular target: T2, huPPARα (Homo sapiens, UniProt Q07869); assay: as above; conditions: tritium-labeled PPARα agonist radioligand
# T2 sequence (Q07869 1-468): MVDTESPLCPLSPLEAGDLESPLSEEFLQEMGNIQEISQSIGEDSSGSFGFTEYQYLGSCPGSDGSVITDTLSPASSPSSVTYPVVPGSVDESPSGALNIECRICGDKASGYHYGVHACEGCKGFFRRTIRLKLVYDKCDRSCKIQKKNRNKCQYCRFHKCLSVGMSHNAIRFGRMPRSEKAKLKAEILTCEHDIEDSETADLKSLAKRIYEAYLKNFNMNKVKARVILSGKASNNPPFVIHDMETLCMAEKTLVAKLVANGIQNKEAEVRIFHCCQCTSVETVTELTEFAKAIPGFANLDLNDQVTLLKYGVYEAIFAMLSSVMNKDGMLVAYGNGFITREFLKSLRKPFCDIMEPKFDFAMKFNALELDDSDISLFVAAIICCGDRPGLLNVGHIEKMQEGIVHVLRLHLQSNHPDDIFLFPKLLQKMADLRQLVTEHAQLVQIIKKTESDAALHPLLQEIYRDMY
# T2 sequence (P19793 1-462 partner): T1 sequence (P19793 1-462 partner)
# Procedure: as §1, §2
# huPPARα [3] = assay: Cotransfection assay in CV-1 cells, luciferase reporter; format: cell-based, human; conditions: GAL4 chimeric system, relative to PPARα agonist reference molecule
# Procedure: […] binding (ABCD binding) was carried out using SPA technology with PPAR receptors. Tritium-labeled PPARα and PPARγ agonists were used as radioligands for generating displacement curves and IC50 values with compounds of the invention. Cotransfection assays were carried out in CV-1 cells. The reporter plasmid contained an acylCoA oxidase (AOX) PPRE and TK promoter upstream of the luciferase reporter cDNA. Appropriate PPARs and RXRα were constitutively expressed using plasmids containing the CMV promoter. For PPARα and […], interference by endogenous […] in CV-1 cells was an issue. In order to eliminate such interference, a GAL4 chimeric system was used in which the DNA binding domain of the transfected PPAR was replaced by that of GAL4, and the GAL4 response element was utilized in place of the AOX PPRE. Cotransfection efficacy was determined relative to PPARα agonist and […] reference molecules. Efficacies were determined by computer fit to a concentration-response curve, or in some cases at a single high concentration of agonist (10 μM). For binding or cotransfection studies with receptors other than PPARs, similar assays were carried out using appropriate ligands, receptors, reporter constructs, etc., for that particular receptor.
# as §2
# huPPARγ [4] = assay: as above; format: cell-based, human; conditions: GAL4 chimeric system, relative to agonist reference molecule
# Procedure: as §1, with “Tritium-labeled PPARα and PPARγ agonists were used as radioligands for generating displacement curves and IC50 values with compounds of the invention.” left out, “Cotransfection efficacy was determined relative to PPARα agonist and PPARβ agonist reference molecules.” left out
# as §2
Structure (SMILES),IC50 (huPPARγ [1]),IC50 (huPPARα [2]),huPPARα CTF Efficacy (huPPARα [3]),huPPARγ CTF Efficacy (huPPARγ [4])
"COc1cc(CC(C)(Oc2ccccc2)C(=O)O)ccc1OCCc1nc(-c2ccc(-c3ccccc3)cc2)oc1C (stereo not drawn) [Example 7, 3-{4-[2-(2-Biphenyl-4-yl-5-methyloxazol-4-yl)ethoxy]-3-methoxyphenyl}-2-methyl-2-phenoxypropionic acid]",174 nM,4120 nM,60%,93%
"Cc1oc(-c2ccc(-c3ccccc3)cc2)nc1CCOc1ccc(CC(C)(Oc2ccc(C(C)(C)C)cc2)C(=O)O)cc1 (stereo not drawn) [Example 15, 3-{4-[2-(2-Biphenyl-4-yl-5-methyl-oxazol-4-yl)-ethoxy]-phenyl}-2-methyl-2-(4-tert-butylphenoxy)-propionic acid]",107 nM,196 nM,96%,90%
"Cc1oc(-c2ccc(-c3cccs3)cc2)nc1CCOc1ccc(CC(C)(Oc2ccc(C(C)(C)C)cc2)C(=O)O)cc1 (stereo not drawn) [Example 17, 2-Methyl-3-(4-{2-[5-methyl-2-(4-thiophen-2-yl-phenyl)-oxazol-4-yl]-ethoxy}-phenyl)-2-(4-tert-butylphenoxy)-propionic acid]",119 nM,186 nM,116%,80%
"Cc1oc(-c2ccc(-c3cccs3)cc2)nc1CCOc1ccc(CC(C)(Oc2cccc(F)c2)C(=O)O)cc1 (stereo not drawn) [Example 22, 2-(3-Fluoro-phenoxy)-2-methyl-3-(4-{2-[5-methyl-2-(4-thiophen-2-yl-phenyl)-oxazol-4-yl]-ethoxy}-phenyl)-propionic acid]",78 nM,260 nM,63%,100%
"Cc1oc(-c2cccc(-c3ccccc3)c2)nc1CCOc1ccc(CC(C)(Oc2ccc(F)cc2)C(=O)O)cc1 (stereo not drawn) [Example 51, 3-{4-[2-(2-Biphenyl-3-yl-5-methyl-oxazol-4-yl)-ethoxy]-phenyl}-2-(4-fluoro-phenoxy)-2-methyl-propionic acid]",56 nM,203 nM,43%,160%
"COc1cccc(OC(C)(Cc2ccc(OCCc3nc(-c4ccc(-c5ccccc5)cc4)oc3C)cc2)C(=O)O)c1 (stereo not drawn) [Example 56, 3-{4-[2-(2-Biphenyl-4-yl-5-methyl-oxazol-4-yl)-ethoxy]-phenyl}-2-(3-methoxy-phenoxy)-2-methyl-propionic acid]",99 nM,613 nM,70%,88%
"CC(C)(Oc1ccc(C(=O)c2ccc(Cl)cc2)cc1)C(=O)O [Fenofibric acid, reference compound]",,,16%,0%
"Cc1c(C)c2c(c(C)c1O)CCC(C)(COc1ccc(CC3SC(=O)NC3=O)cc1)O2 (stereo not drawn) [Troglitazone, reference compound]",,,0%,

# More lines, main results first:
IC50 (huPPARγ [1]),IC50 (huPPARα [2]),Structure (SMILES),huPPARα CTF Efficacy (huPPARα [3]),huPPARγ CTF Efficacy (huPPARγ [4])
41 nM,605 nM,"COc1cc(CC(C)(Oc2ccccc2)C(=O)O)ccc1OCCc1nc(-c2cccc(-c3ccccc3)c2)oc1C (stereo not drawn) [Example 8, 3-{4-[2-(2-Biphenyl-3-yl-5-methyloxazol-4-yl)ethoxy]-3-methoxyphenyl}-2-methyl-2-phenoxypropionic acid]",45%,91%
55 nM,159 nM,"Cc1oc(-c2cccc(-c3cccs3)c2)nc1CCOc1ccc(CC(C)(Oc2ccc(Cl)cc2)C(=O)O)cc1 (stereo not drawn) [Example 26, 2-(4-Chlorophenoxy)-2-methyl-3-(4-{2-[5-methyl-2-(3-thiophen-2-yl-phenyl)-oxazol-4-yl]-ethoxy}-phenyl)-propionic acid]",54%,100%
40 nM,165 nM,"Cc1ccc(OC(C)(Cc2ccc(OCCc3nc(-c4ccc(-c5ccccc5)cc4)oc3C)cc2)C(=O)O)cc1C (stereo not drawn) [Example 34, 3-{4-[2-(2-Biphenyl-4-yl-5-methyl-oxazol-4-yl)-ethoxy]-phenyl}-2-(3,4-dimethyl-phenoxy)-2-methyl-propionic acid]",61%,95%
45 nM,402 nM,"CCC(Cc1ccc(OCCc2nc(-c3cccc(-c4ccccc4)c3)oc2C)cc1)(Oc1ccccc1)C(=O)O (stereo not drawn) [Example 41, 2-{4-[2-(2-Biphenyl-3-yl-5-methyl-oxazol-4-yl)-ethoxy]-benzyl}-2-phenoxy-butyric acid]",44%,108%
56 nM,310 nM,"CCC(Cc1ccc(OCCc2nc(-c3cccc(-c4cccs4)c3)oc2C)cc1)(Oc1ccccc1)C(=O)O (stereo not drawn) [Example 42, 2-(4-{2-[5-Methyl-2-(3-thiophen-2-yl-phenyl)-oxazol-4-yl]-ethoxy}-benzyl)-2-phenoxy-butyric acid]",49%,105%
54 nM,182 nM,"Cc1cccc(OC(C)(Cc2ccc(OCCc3nc(-c4cccc(-c5ccccc5)c4)oc3C)cc2)C(=O)O)c1 (stereo not drawn) [Example 48, 3-{4-[2-(2-Biphenyl-3-yl-5-methyl-oxazol-4-yl)-ethoxy]-phenyl}-2-methyl-2-m-tolyloxy-propionic acid]",45%,145%
